Key:
[1] = system: Parkin-non-expressed HeLa cells; test: Confocal laser microscopic detection of mitophagy, CCCP induction; assay type: cell-based; conditions: 100 nmol/L, 10 μM/L CCCP for 24 hours
HeLa cells = test: Mitophagy detection test using HeLa cells (starvation induction), fluorescent microscope; assay type: cell-based; conditions: 100 nmol/L, 30 min, 1 μM Lyso Dye
Description: HeLa cells were seeded on a μ-slide 8 well (Ibidi) and incubated in a CO2 incubator at 37° C. overnight. Compound 9 diluted with Hanks' HEPES buffer (100 nmol/L) was added and incubated for 30 minutes. A starvation induction was carried out by washing cultured cells with Hanks' HEPES buffer twice follow by adding plasma-free Krebs' buffer containing 1 μM glucagon and 7.5 μM pepstatin A and incubating at 37° C. for appropriate period. Then, the cultured cells were observed by a fluorescent microscope. To confirm the uptake of Compound 9 in lysosomes, 1 μM Lyso Dye diluted with Hanks' HEPES buffer was added to the cultured cells and incubated at 37° C. for 30 minutes.

[2] = system: Parkin-expressed HeLa cells; test: Flow cytometry (FCM) analysis of mitophagy, CCCP induction; assay type: cell-based; conditions: 100 nmol/L, 10 μM/L CCCP for 24 hours
Description: HeLa cells were seeded on a 24 well plate and incubated in a CO2 incubator at 37° C. overnight. Parkin plasmid was introduced using HilyMax (DOJINDO LABORATORIES) into the cells and the cells were further incubated overnight. The cultured cells were washed with a plasma-containing medium, to which Compound 9 diluted with Hanks' HEPES buffer (100 nmol/L) was added and incubated for 30 minutes. After washing with the plasma-containing medium, the cells were cultured in a cell culture medium containing 10 μM/L of CCCP for 24 hours. After washing with PBS, the cells were peeled off by trypsin and EDTA. The cells were collected by centrifuge, dispersed in 0.5 mL of HBSS and analyzed by FCM (BD FACS cant II).

[3] = pH-dependent excitation and fluorescence spectra in buffer solution containing 50% acetonitrile; assay type: physicochemical
Description: To investigate a pH-dependent fluorescent emission of Compound 9, excitation spectra (“Excitation” in FIG. 1) and fluorescence spectra (“Fluorescence” in FIG. 1) were measured at pH 4.0 and 7.4 in buffer solution containing 50% acetonitrile.

[4] = system: Parkin-expressed HeLa cells; test: Confocal laser microscopic detection of mitophagy, CCCP induction; assay type: cell-based; conditions: 100 nmol/L, 10 μM/L CCCP for 24 hours, 1 μM Lyso Dye
From the text: Methods for inducing mitophagy include, in addition to a bulk method such as described in Example 3 above, a selective method mediated with Parkin gene and PINK1 enzyme. The latter involves Parkinson disease and the relationship with a quality control of dysfunctional mitochondria (For example, see Derek Narendra, Atsushi Tanaka, Der-Fen Suen and Richard J. Youle, J. Cell Biol., 2008, 183, 795-803.). To examine the mitochondria-selective detection of autophagy, Parkin-expressed HeLa cells were prepared and the mitophagy was induced by adding Compound 9 and carbonyl cyanide m-chlorophenyl hydrazone (CCCP), a mitochondrial uncoupler and incubating.
HeLa cells were seeded on a μ-slide 8 well (Ibidi) and incubated in a CO2 incubator at 37° C. overnight. Parkin plasmid was introduced using HilyMax (DOJINDO LABORATORIES) into the cells and the cells were incubated overnight. The cultured cells were washed with a plasma-containing medium, to which Compound 9 diluted with Hanks' HEPES buffer (100 nmol/L) was added and incubated for 30 minutes. After washing with the plasma-containing medium, the cells were cultured in a cell culture medium containing 10 μM/L of CCCP for 24 hours. After the occurrence of mitophagy was monitored by the fluorescent microscope, the cultured cells were further incubated with 1 μM Lyso Dye at 37° C. for 30 minutes.

[5] = Fluorescent intensity at various pH in buffer solution containing 50% DMSO; assay type: physicochemical
Description: The fluorescent intensities of Compound 9 at various pH were measured in buffer solution containing 50% DMSO. […] Such increase takes place at more acidic side than that of naphthyl imide-type pH-responsive fluorescent compound.

SMILES: O=C(CCN1C(=O)c2ccc3c4cccc5c(N6CCN(Cc7ccc(CCl)cc7)CC6)ccc(c6ccc(c2c36)C1=O)c54)NCC[P+](c1ccccc1)(c1ccccc1)c1ccccc1.[Br-] [Compound 9]
- fluorescence from compound [1]: faint
- co-staining with Lyso Dye (uptake in lysosomes) (HeLa cells): collateral stain took place
- increase of fluorescent emission on induction of mitophagy using CCCP [2]: 1.3 times
- fluorescent intensity at pH 4.0 compared with pH 7.4 ([3]; buffer solution containing 50% acetonitrile, pH 4.0 vs 7.4): higher than that at pH 7.4
- shift of maximum fluorescent wavelength to short-wavelength side ([3]; pH 4.0 vs pH 7.4, buffer solution containing 50% acetonitrile): 30 nm
- self-aggregation behaviour ([3]; polar solvent, leads to decrease of fluorescent intensity): tends to form a self-aggregate in a polar solvent
- fluorescence from compound and co-staining with lysosome dye [4]: is observed as well as the collateral stain with a lysosome dye (Lyso Dye) is observed
- change of fluorescent intensity responding to pH [5]: increases from a neutral region to an acidic region

Source: patent publication US10787473B2, “PH responsive fluorescent compound, composition for detecting mitophagy using same, and method for detecting mitophagy within cells” (DOJINDO LABORATORIES, priority 2016, dated 2020)
